Literature values, collected in patent US20100056488A1, “CORTICOSTEROID CONJUGATES AND USES THEREOF” (The McLean Hospital Corporation, priority 2002, published 2010).

Experiments:
[1] = test system: cortisol production or ACTH; conditions: suppression of cortisol production or ACTH
[2] = test system: corticosterone production; conditions: suppression for 24 hours
[3] = test system: ether-stress induced increase in corticosterone; conditions: dose 0.025 mg/kg; higher dose necessary to fully eliminate response

Row | SMILES | CNS activity [1] | lowest dose fully effective in suppressing basal corticosterone production [2] | suppression of ether-stress induced increase in corticosterone [3]
1 | C[C@]12CCC(=O)C=C1CC[C@@H]1[C@@H]2[C@@H](O)C[C@@]2(C)[C@H]1CC[C@]2(O)C(=O)COC(=O)CCC(=O)O [Hydrocortisone sodium succinate] | CNS active |  | 
2 | C[C@@H]1C[C@H]2[C@@H]3CCC4=CC(=O)C=C[C@]4(C)[C@@]3(F)[C@@H](O)C[C@]2(C)[C@@]1(O)C(=O)CO [dexamethasone] |  | 0.025 mg/kg | significantly suppressed
